Laboratory results as given in paper PMC3604156 (Transplantation, 2013).
Where two headings read alike, the source gives them in different places.

Key:
[1] = assay type: in vivo, human; conditions: for AUC0–inf: whole blood, single oral 5 mg/kg CsA, mean ± SD
[2] = assay type: in vivo, human; conditions: expressors vs nonexpressors

SMILES: CC[C@@H]1NC(=O)[C@H]([C@H](O)[C@H](C)C/C=C/CO)N(C)C(=O)[C@H](C(C)C)N(C)C(=O)[C@H](CC(C)C)N(C)C(=O)[C@H](CC(C)(C)O)N(C)C(=O)[C@@H](C)NC(=O)[C@H](C)NC(=O)[C@H](CC(C)C)N(C)C(=O)[C@H](C(C)C)NC(=O)[C@H](CC(C)C)N(C)C(=O)CN(C)C1=O [AM19]
- AUCAM19/AUCAM1 ratio, higher in CYP3A5 expressors compared to nonexpressors ([1]; expressors vs nonexpressors): 46.9%
- average blood AUC, higher in CYP3A5 expressors compared to nonexpressors ([1]; expressors vs nonexpressors): 47.4%
- AUC0–inf ([1]; CYP3A5 expressors (n=12)): 1360 ± 602 ng·h/mL
- AUC0–inf ([1]; CYP3A5 nonexpressors (n=12)): 923 ± 343 ng·h/mL
- average cumulative amount excreted in urine, higher in CYP3A5 expressors compared to nonexpressors [2]: 48%
